These are literature values, as cited in patent US11331266B1, “Antioxidant free, norepinephrine bitartrate injection in amber glass vials” (Medefil, Inc., priority 2020, dated 2022).

The conditions of the series: literature, Int. J. Toxicol. 2002; 21 Suppl 2:19-94.

Regarding `COc1ccc(O)c(C(C)(C)C)c1` [butylated hydroxyl anisole], the organ damage entry was “some renal and hepatic damage”.
